What was measured:
Experiment in all cases: B2 Post-Emergence Efficacy - Test 2
Type in all cases: in vivo
[1] = test system: Euphorbia hetrophylla (EPHHL); details: 15 days after application, 0-100 scale
Summary of the method: (§1)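 Sow in standard soil; grow 12 d under controlled conditions, 65% humidity, 16 h light, 24/18 °C or 20/16 °C. Spray with water-diluted IF50 formulation, 0.2% v/v Genapol X080. Water twice daily. Assess injury at 15 d (0–100).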

[2] = test system: Chenopodium album (CHEAL); details: 15 days after application, 0-100 scale
Summary of the method: as §1

[3] = test system: Panicum miliaceum (PANMI); details: 15 days after application, 0=no damage, 100=total kill
Summary of the method: as §1

Stellaria media (STEME) = details: 15 days after application, 0-100 scale
Summary of the method: as §1

[4] = test system: Xanthium strumarium (XANST); details: 15 days after application, 0-100 scale
Summary of the method: as §1

Brassica napus (BRSNN) = details: 15 days after application, 0-100 scale
Summary of the method: as §1

[5] = test system: Echinochloa crus galli (ECHCG); details: 15 days after application, 0=no damage, 100=total kill
Summary of the method: as §1

Sorghum bicolour (SORVU) = details: 15 days after application, 0=no damage, 100=total kill
Summary of the method: as §1

Bromus tectorum (BROTE) = details: 15 days after application, 0-100 scale
Summary of the method: as §1

Lolium perenne (LOLPE) = details: 15 days after application, 0-100 scale
Summary of the method: as §1

[6] = test system: Alopecurus myosuroides (ALOMY); details: 15 days after application, 0-100 scale
Summary of the method: as §1

Glycine max (GLXMA) = details: 15 days after application; for Herbicidal activity GLXMA: 0-100 scale; for Herbicidal activity on a 0-100 scale, GLXMA: 0=no damage, 100=total kill
Summary of the method: as §1

Poa annua (POAAN) = details: 15 days after application, 0-100 scale
Summary of the method: as §1

[7] = test system: Abutilon theophrasti (ABUTH); details: 15 days after application, 0-100 scale
Summary of the method: as §1

Orysa sativa (ORYSA) = details: 15 days after application; for Herbicidal activity ORYSA: 0-100 scale; for Herbicidal activity on a 0-100 scale, ORYSA: 0=no damage, 100=total kill
Summary of the method: as §1

Sida spinosa (SIDSP) = details: 15 days after application, 0-100 scale
Summary of the method: as §1

Zea mays (ZEAMX) = details: 15 days after application; for Herbicidal activity ZEAMX: 0-100 scale; for Herbicidal activity on a 0-100 scale, ZEAMX: 0=no damage, 100=total kill
Summary of the method: as §1

For `Cc1nn(C)c(=O)c(-c2c(F)ccc(Cl)c2CCc2ccc(Cl)cc2)c1OC(=O)C(C)C` [Compound 1.089, [5-[3-chloro-2-[2-(4-chlorophenyl)ethyl]-6-fluoro-phenyl]-1,3-dimethyl-6-oxo-pyridazin-4-yl] 2-methylpropanoate], the “Herbicidal activity EPHHL” value ([1]; 15 g/Ha) was 80, the “Herbicidal activity EPHHL” value ([1]; 30 g/Ha) was 100 and the “Herbicidal activity EPHHL” value ([1]; 60 g/Ha) was 100. The “Herbicidal activity EPHHL” value ([1]; 125 g/Ha) was 100, the “Herbicidal activity EPHHL” value ([1]; 250 g/Ha) was 100 and the “Herbicidal activity EPHHL” value ([1]; 500 g/Ha) was 100. For the same molecule, the “Herbicidal activity CHEAL” value ([2]; 15 g/Ha) was 80, the “Herbicidal activity CHEAL” value ([2]; 30 g/Ha) was 90 and the “Herbicidal activity CHEAL” value ([2]; 60 g/Ha) was 90. The “Herbicidal activity CHEAL” value ([2]; 125 g/Ha) was 100, the “Herbicidal activity CHEAL” value ([2]; 250 g/Ha) was 100 and the “Herbicidal activity CHEAL” value ([2]; 500 g/Ha) was 100. For the same molecule, the “Herbicidal activity on a 0-100 scale, PANMI” value (from here on “Herbicidal activity … PANMI”) ([3]; 15 g/Ha) was 0, the “Herbicidal activity … PANMI” value ([3]; 30 g/Ha) was 20 and the “Herbicidal activity … PANMI” value ([3]; 60 g/Ha) was 50. The “Herbicidal activity … PANMI” value ([3]; 125 g/Ha) was 60, the “Herbicidal activity … PANMI” value ([3]; 250 g/Ha) was 80 and the “Herbicidal activity … PANMI” value ([3]; 500 g/Ha) was 90. The “Herbicidal activity STEME” value (Stellaria media (STEME); 15 g/Ha) was 90, the “Herbicidal activity STEME” value (Stellaria media (STEME); 30 g/Ha) was 90 and the “Herbicidal activity STEME” value (Stellaria media (STEME); 60 g/Ha) was 90. For the same molecule, the “Herbicidal activity STEME” value (Stellaria media (STEME); 125 g/Ha) was 90, the “Herbicidal activity STEME” value (Stellaria media (STEME); 250 g/Ha) was 90 and the “Herbicidal activity STEME” value (Stellaria media (STEME); 500 g/Ha) was 90. For the same molecule, the “Herbicidal activity XANST” value ([4]; 30 g/Ha) was 90, the “Herbicidal activity XANST” value ([4]; 60 g/Ha) was 80 and the “Herbicidal activity XANST” value ([4]; 125 g/Ha) was 90. The “Herbicidal activity XANST” value ([4]; 250 g/Ha) was 90, the “Herbicidal activity XANST” value ([4]; 500 g/Ha) was 100 and the “Herbicidal activity BRSNN” value (Brassica napus (BRSNN); 15 g/Ha) was 80. The “Herbicidal activity BRSNN” value (Brassica napus (BRSNN); 30 g/Ha) was 80, the “Herbicidal activity BRSNN” value (Brassica napus (BRSNN); 60 g/Ha) was 90 and the “Herbicidal activity BRSNN” value (Brassica napus (BRSNN); 125 g/Ha) was 90. The “Herbicidal activity BRSNN” value (Brassica napus (BRSNN); 250 g/Ha) was 90, the “Herbicidal activity BRSNN” value (Brassica napus (BRSNN); 500 g/Ha) was 90 and the “Herbicidal activity on a 0-100 scale, ECHCG” value (“Herbicidal activity … ECHCG” for short) ([5]; 15 g/Ha) was 80. For the same molecule, the “Herbicidal activity … ECHCG” value ([5]; 30 g/Ha) was 80, the “Herbicidal activity … ECHCG” value ([5]; 60 g/Ha) was 80 and the “Herbicidal activity … ECHCG” value ([5]; 125 g/Ha) was 90. The “Herbicidal activity … ECHCG” value ([5]; 250 g/Ha) was 90, the “Herbicidal activity … ECHCG” value ([5]; 500 g/Ha) was 100 and the “Herbicidal activity on a 0-100 scale, SORVU” value (“Herbicidal activity … SORVU” for short) (Sorghum bicolour (SORVU); 15 g/Ha) was 0. The “Herbicidal activity … SORVU” value (Sorghum bicolour (SORVU); 30 g/Ha) was 60, the “Herbicidal activity … SORVU” value (Sorghum bicolour (SORVU); 60 g/Ha) was 70 and the “Herbicidal activity … SORVU” value (Sorghum bicolour (SORVU); 125 g/Ha) was 90. The “Herbicidal activity … SORVU” value (Sorghum bicolour (SORVU); 250 g/Ha) was 90, the “Herbicidal activity … SORVU” value (Sorghum bicolour (SORVU); 500 g/Ha) was 90 and the “Herbicidal activity BROTE” value (Bromus tectorum (BROTE); 15 g/Ha) was 0. The “Herbicidal activity BROTE” value (Bromus tectorum (BROTE); 30 g/Ha) was 0, the “Herbicidal activity BROTE” value (Bromus tectorum (BROTE); 60 g/Ha) was 10 and the “Herbicidal activity BROTE” value (Bromus tectorum (BROTE); 125 g/Ha) was 30. The “Herbicidal activity BROTE” value (Bromus tectorum (BROTE); 250 g/Ha) was 60, the “Herbicidal activity BROTE” value (Bromus tectorum (BROTE); 500 g/Ha) was 70 and the “Herbicidal activity LOLPE” value (Lolium perenne (LOLPE); 15 g/Ha) was 40. For the same molecule, the “Herbicidal activity LOLPE” value (Lolium perenne (LOLPE); 30 g/Ha) was 70, the “Herbicidal activity LOLPE” value (Lolium perenne (LOLPE); 60 g/Ha) was 80 and the “Herbicidal activity LOLPE” value (Lolium perenne (LOLPE); 125 g/Ha) was 90. The “Herbicidal activity LOLPE” value (Lolium perenne (LOLPE); 250 g/Ha) was 90, the “Herbicidal activity LOLPE” value (Lolium perenne (LOLPE); 500 g/Ha) was 90 and the “Herbicidal activity ALOMY” value ([6]; 15 g/Ha) was 20. For the same molecule, the “Herbicidal activity ALOMY” value ([6]; 30 g/Ha) was 50, the “Herbicidal activity ALOMY” value ([6]; 60 g/Ha) was 50 and the “Herbicidal activity ALOMY” value ([6]; 125 g/Ha) was 80. For the same molecule, the “Herbicidal activity ALOMY” value ([6]; 250 g/Ha) was 80, the “Herbicidal activity ALOMY” value ([6]; 500 g/Ha) was 90 and the “Herbicidal activity GLXMA” value (Glycine max (GLXMA); 30 g/Ha) was 70. For the same molecule, the “Herbicidal activity on a 0-100 scale, GLXMA” value (Glycine max (GLXMA); 30 g/Ha) was 70, the “Herbicidal activity GLXMA” value (Glycine max (GLXMA); 60 g/Ha) was 80 and the “Herbicidal activity on a 0-100 scale, GLXMA” value (Glycine max (GLXMA); 60 g/Ha) was 80. The “Herbicidal activity GLXMA” value (Glycine max (GLXMA); 250 g/Ha) was 100, the “Herbicidal activity on a 0-100 scale, GLXMA” value (Glycine max (GLXMA); 250 g/Ha) was 100 and the “Herbicidal activity GLXMA” value (Glycine max (GLXMA); 500 g/Ha) was 100. The “Herbicidal activity on a 0-100 scale, GLXMA” value (Glycine max (GLXMA); 500 g/Ha) was 100, the “Herbicidal activity POAAN” value (Poa annua (POAAN); 15 g/Ha) was 20 and the “Herbicidal activity POAAN” value (Poa annua (POAAN); 30 g/Ha) was 40. The “Herbicidal activity POAAN” value (Poa annua (POAAN); 60 g/Ha) was 70, the “Herbicidal activity POAAN” value (Poa annua (POAAN); 125 g/Ha) was 90 and the “Herbicidal activity POAAN” value (Poa annua (POAAN); 250 g/Ha) was 80. The “Herbicidal activity POAAN” value (Poa annua (POAAN); 500 g/Ha) was 70, the “Herbicidal activity ABUTH” value ([7]; 15 g/Ha) was 70 and the “Herbicidal activity ABUTH” value ([7]; 30 g/Ha) was 90. The “Herbicidal activity ABUTH” value ([7]; 60 g/Ha) was 100, the “Herbicidal activity ABUTH” value ([7]; 125 g/Ha) was 100 and the “Herbicidal activity ABUTH” value ([7]; 250 g/Ha) was 100. For the same molecule, the “Herbicidal activity ABUTH” value ([7]; 500 g/Ha) was 100, the “Herbicidal activity ORYSA” value (Orysa sativa (ORYSA); 15 g/Ha) was 0 and the “Herbicidal activity on a 0-100 scale, ORYSA” value (Orysa sativa (ORYSA); 15 g/Ha) was 0. For the same molecule, the “Herbicidal activity ORYSA” value (Orysa sativa (ORYSA); 30 g/Ha) was 0, the “Herbicidal activity on a 0-100 scale, ORYSA” value (Orysa sativa (ORYSA); 30 g/Ha) was 0 and the “Herbicidal activity ORYSA” value (Orysa sativa (ORYSA); 60 g/Ha) was 0. The “Herbicidal activity on a 0-100 scale, ORYSA” value (Orysa sativa (ORYSA); 60 g/Ha) was 0, the “Herbicidal activity ORYSA” value (Orysa sativa (ORYSA); 125 g/Ha) was 10 and the “Herbicidal activity on a 0-100 scale, ORYSA” value (Orysa sativa (ORYSA); 125 g/Ha) was 10. For the same molecule, the “Herbicidal activity ORYSA” value (Orysa sativa (ORYSA); 250 g/Ha) was 20, the “Herbicidal activity on a 0-100 scale, ORYSA” value (Orysa sativa (ORYSA); 250 g/Ha) was 20 and the “Herbicidal activity ORYSA” value (Orysa sativa (ORYSA); 500 g/Ha) was 50. The “Herbicidal activity on a 0-100 scale, ORYSA” value (Orysa sativa (ORYSA); 500 g/Ha) was 50, the “Herbicidal activity SIDSP” value (Sida spinosa (SIDSP); 30 g/Ha) was 80 and the “Herbicidal activity SIDSP” value (Sida spinosa (SIDSP); 60 g/Ha) was 90. The “Herbicidal activity SIDSP” value (Sida spinosa (SIDSP); 125 g/Ha) was 100, the “Herbicidal activity SIDSP” value (Sida spinosa (SIDSP); 250 g/Ha) was 100 and the “Herbicidal activity SIDSP” value (Sida spinosa (SIDSP); 500 g/Ha) was 100. For the same molecule, the “Herbicidal activity ZEAMX” value (Zea mays (ZEAMX); 15 g/Ha) was 0, the “Herbicidal activity on a 0-100 scale, ZEAMX” value (Zea mays (ZEAMX); 15 g/Ha) was 0 and the “Herbicidal activity ZEAMX” value (Zea mays (ZEAMX); 30 g/Ha) was 20. For the same molecule, the “Herbicidal activity on a 0-100 scale, ZEAMX” value (Zea mays (ZEAMX); 30 g/Ha) was 20, the “Herbicidal activity ZEAMX” value (Zea mays (ZEAMX); 60 g/Ha) was 30 and the “Herbicidal activity on a 0-100 scale, ZEAMX” value (Zea mays (ZEAMX); 60 g/Ha) was 30. For the same molecule, the “Herbicidal activity ZEAMX” value (Zea mays (ZEAMX); 125 g/Ha) was 30, the “Herbicidal activity on a 0-100 scale, ZEAMX” value (Zea mays (ZEAMX); 125 g/Ha) was 30 and the “Herbicidal activity ZEAMX” value (Zea mays (ZEAMX); 250 g/Ha) was 90. For the same molecule, the “Herbicidal activity on a 0-100 scale, ZEAMX” value (Zea mays (ZEAMX); 250 g/Ha) was 90, the “Herbicidal activity ZEAMX” value (Zea mays (ZEAMX); 500 g/Ha) was 100 and the “Herbicidal activity on a 0-100 scale, ZEAMX” value (Zea mays (ZEAMX); 500 g/Ha) was 100.
